In US10188727B2, “Bifunctional molecules with antibody-recruiting and entry inhibitory activity against the human immunodeficiency virus” (YALE UNIVERSITY, priority 2009, dated 2019):
“Also recorded” adds a separate entry of the source. Like-named read-outs stand apart in the source and are kept apart here.

What was measured:
CD4-gp120 interaction = CD4-gp120 interaction (Human immunodeficiency virus type 1, UniProt Q75760); assay: CD4 inhibition ELISA (competition ELISA, sCD4 binding to immobilized gp120); parameters: species or system HIV-1
Description: CD4 Inhibition ELISA (FIG. 2A)
This procedure was adapted from the protocol reported by Lin, et al.^14. 96 well plates (Nunc; Immuno) were coated overnight at 4° C. with soluble recombinant HIV-1 gp120JRFL (Immune Technology; Yonkers, N.Y.) at 1 μg/ml in 0.05M Buffer A (carbonate/bicarbonate, pH=9.6, Aldrich). Plates were washed with PBS (Aldrich, 1×100 μL) and then blocked with 3% nonfat milk in phosphate buffered saline solution (PBS, Aldrich) for 1 hr at room temperature. After washing with Buffer B (50 mM Tris HCl, 100 mM NaCl, 0.05% Tween-20, pH 7.4), varying concentrations of the inhibitor were added simultaneously with recombinant human T-cell CD4 (ImmunoDiagnostics, Inc; Woburn, Mass.) in Buffer C (50 mM Tris HCl, 100 mM NaCl, 1% BSA, pH 7.4) so that the final concentration/well of CD4 is 0.1 μg/mL and plates were incubated for 1 hr at room temperature. Plates were washed with Buffer B (3×100 μL) and then incubated with mouse OKT4 anti-CD4 IgG antibody (Biolegend; San Diego, Calif.) at 0.36 μg/ml in Buffer C at RT for 1 hr. Following washes with Buffer B, plates were incubated with horse radish peroxidase (HRP)-conjugated goat anti-mouse antibody (1:2500; Biolegend; San Diego, Calif.). Bound antibody was detected with 3,3,5,5-tetramethylbenzidine (TMB, Pierce Protein Research Products), the chromogenic substrate for HPR, and absorbance was read at 450 nm. […]

wild-type HIV IIIB = assay: MT-2 cell assay, antiviral activity (MTT); assay type: cell-based, HIV-1
Description: (§1) Antiviral activity and cellular toxicity were determined using the MTT colorimetric method^7,8. MT-2 cell^9,10 at a concentration of 1×10^5 cells per milliliter were infected with wild-type HIV IIIB^11,12,13 at a multiplicity of infection (MOI) of 0.1. Infected and mock-infected cells were incubated in growth medium (RPMI 1640, 10% δFBS, kanamycin) for 5 days with varying concentrations of each compound being tested in triplicate in a 96-well plate. MIT (thiazolyl blue tetrazolium bromide), a cell-permeable tetrazolium dye was then added to each well. Active mitochondria reduce the yellow tetrazolium salt to a blue formazan precipitate. After 5 h, stop solution (86% isopropanol, 4% NP-40, 10% H2O, and 0.3% concentrated HCl) was added to lyse the cells and stop the reaction. The plates were gently shaken gently overnight on a horizontal rotator, and quantitated the following morning. Cell viability was measured spectrophotometrically by quantifying the amount of purple precipitate via determining the absorbance at 595 nm using a Multiskan Plus from Labsystems (Helsinki, Finland) microplate reader. The average of these triplicate samples was then plotted versus inhibitor concentration to generate dose-response curves. The 50% effective concentration (EC50) and 50% cytotoxic concentration (CC50) of the compounds were defined as the concentrations required to inhibit viral replication and to reduce the number of viable cells by 50%, respectively. Positive controls were done during each set of experiments using d4T and the appropriate parent NNRTI (HI-236 or TMC-derivative). Data were quantitated using KaleidaGraph (Synergy Software). ^7. Mosmann, T. J. Immunol Methods 1983, 65, 55-63.^8. Pannecouque, C.; Daelemans, D.; Clercq, E. D. Nat Protoc. 2008, 3, 427-434.^9. Haertle, T.; Carrera, C. J.; Wasson, D. B.; Sowers, L. C.; Richman, D. D.; Carson, D. A. J. Biol Chem. 1988, 263, 5870-5875.^10. Harada, S.; Koyanagi, Y.; Yamamoto, N. Science 1985, 229, 563-566.^11. Popovic, M.; Read-Connole, E.; Gallo, R. C. […] Popovic, M.; Samgadharan, M. G.; Read, E.; Gallo, R. C. […]

CHO-gp120 cells [1] = assay: Immunofluorescence microscopy, recruitment of labeled anti-DNP antibodies; assay type: cell-based, Chinese hamster; conditions: ARM-H plus competing ligand
Description: Immunofluorescence (FIG. 3)
Confluent CHO-WT (env expressing) or CHO-K1 (non-env expressing) cells were incubated on cover slips (15CIR-1D, Fisher) over 2 nights at 37° C. in 5% CO2. Cover slips were washed with DPBS (1 mL, Gibco) and then cells fixed with 4% parafomaldehyde in DPBS at 4° C. for 10 minutes. […] Cover slips then washed with Buffer E (2×70 μl) and incubated with AlexaFluor488 rabbit anti-DNP IgG antibodies (Invitrogen) at 15 μg/ml in Buffer E (70 μl) for 1 hr at 4° C. All cover slips were washed prior to mounting onto slides using Gel Mount mounting medium (Biomeda Corp.) with Buffer E and water. Corresponding competition experiments were performed in the presence of recombinant human T-cell CD4 (ImmunoDiagnostics, Inc; Woburn, Mass.), BMS-378806 (1) and DNP-PEG-alkyne (2). Cells were checked using a Zeiss Axiovert 200M fluorescence microscope equipped with a GFP filter.

CHO-K1 cells = assay: Flow cytometry detection of DNP labeling; assay type: cell-based, Chinese hamster; conditions: higher concentrations of labeling reagent, data not shown
Description: Flow Cytometry Detection of DNP Labeling (FIG. 9)
CHO-K1 cells taken from a T-75 flask (˜80% confluent), were washed once with DPBS (Gibco, 5 mL), and cells were then detached with 2.5 mM EDTA/0.5 mM EGTA in DPBS. Resulting cell suspension was centrifuged at 900 rpm for five minutes, then pellet was aspirated and re-suspended at a density of 1.40×10^6 cells/mL in F12-K growth medium. Cells were incubated with 2,4-dinitrobenzenesulfonic acid (TCI, 50 mg/mL solution in MeOH) at varying concentrations for 30 min. at room temperature. Cells centrifuged and washed with growth medium (×3) and then aliquoted (0.5 ml) into Eppendorf tubes at a cell density of 1.40×10^6 cells/mL. Cells incubated with AlexaFluor 488 conjugated rabbit anti-DNP IgG (Invitrogen) antibodies (20 μg/mL) for 1 hr at 4° C. Cells were subsequently centrifuged, washed with DPBS (3×0.5 mL), resuspended in 0.5 mL DPBS containing 150 μg of propidium iodide (to monitor cell death) and immediately analyzed for fluorescence using a FACSCalibur flow cytometer (Becton Dickinson) monitoring at least 10,000 events/measurement. Data were analyzed using FlowJo Analysis Software (Tree Star).

MT-2 cells = assay: MT-2 cell assay, cellular toxicity in mock-infected cells (MTT); assay type: cell-based, human; conditions: control MT-2 cultures lacking HIV virus
Description: as §1, with “The 50% effective concentration (EC50) and 50% cytotoxic concentration (CC50) of the compounds were defined as the concentrations required to inhibit viral replication and to reduce the number of viable cells by 50%, respectively. Positive controls were done during each set of experiments using d4T and the appropriate parent NNRTI (HI-236 or TMC-derivative).” left out, “Mosmann, T. J. Immunol Methods 1983, 65, 55-63.^8. Pannecouque, C.; Daelemans, D.; Clercq, E. D. Nat Protoc. 2008, 3, 427-434.^9. Haertle, T.; Carrera, C. J.; Wasson, D. B.; Sowers, L. C.; Richman, D. D.; Carson, D. A. J. Biol Chem. 1988, 263, 5870-5875.^10. Harada, S.; Koyanagi, Y.; Yamamoto, N. Science 1985, 229, 563-566.^11.” left out

CHO-gp120 cells [2] = assay: CDC assay (complement-dependent cytotoxicity) on Env-expressing cells; assay type: cell-based, Chinese hamster
Description: CDC Assay (FIG. 4 and FIG. 8)
CHO-WT or CHO-K1 cells taken from a T-75 flask (˜80% confluent), were washed once with DPBS (Gibco, 5 mL), and cells were then detached with 2.5 mM EDTA/0.5 mM EGTA in DPBS. Resulting cell suspension was centrifuged at 900 rpm for five minutes, then pellet was aspirated and re-suspended at a density of 9.00×10^5 cells/mL in Buffer E. Subsequently, cell suspension was added to prepared dilutions of ARM-H (4) (or control molecule) in Buffer E. Resulting cell mixtures were plated in triplicate (50 μL, 22,500 cells/well)□ onto 96 well plates (CoStar, black sides/clear bottom), covered with tin foil and incubated at 4° C. for 1.5 hours. To each well, 50 μL of 20% rabbit complement serum (v/v, Aldrich) and 100 μg/mL rat anti-DNP IgG (Zymed; Carlsbad, Calif.) in Buffer E was added, resulting in a 10% (v/v) complement and 50 μg/mL antibody concentration per well. Negative control wells containing only ARM-H dilutions were prepared in addition to maximum cell death controls (0.15% H2O2). Covered plate was incubated for an additional hour at 4° C. and then for 4 hours at room temperature. All control experiments were conducted following the same protocol. Cell viability was determined using the luciferase-based CellTiter-Glo Luminescent Cell Viability Assay (Promega). Complement mediated cell death and cytotoxicity was calculated as: [1−((sample-max killing)/(untreated-max killing))]×100 and plotted using GraphPad Prism. Raw data was subjected to Dixon Q-test analysis at the 90% confidence interval and statistical outliers removed accordingly^16,17. ^16. Dean, R. B.; Dixon, W. J. Anal. Chem. 1951, 23, 636-638.^17. Efstathiou, C. E. Talanta 2006, 69, 1068-1071.

For `COc1ccnc2[nH]cc(C(=O)C(=O)N3CCN(C(=O)c4ccccc4)C[C@H]3C)c12` [Formula 1, 4-benzoyl-1-(2-(4-methoxy-1H-pyrrolo(2,3-b)pyridin-3-yl)-1,2-dioxoethyl)-2-methyl-, (2R)-Piperazine, reference compound], the IC50 (CD4-gp120 interaction) was 1.3 µM, the IC50 (wild-type HIV IIIB; Human immunodeficiency virus 1, IIIB, MT2, read-out: IC50, HIV-1 inhibition in MT-2 cell assay) was 0.32 µM and the “fluorescence of ARM-H-recruited anti-DNP antibodies in the presence of competing ligand” value (CHO-gp120 cells [1]) was “considerably diminished”.
For `O=[N+]([O-])c1ccc(S(=O)(=O)O)c([N+](=O)[O-])c1` [dinitrobenzenesulfonic acid, 2,4-dinitrobenzenesulfonic acid], the “cell death on labeling of CHO-K1 cells” value (CHO-K1 cells) was “Significant cell death”.
With `C[C@@H]1CN(C(=O)c2ccccc2)CCN1C(=O)C(=O)c1c[nH]c2nccc(OCCOCCOCCOCCOCCOCCn3cc(COCCOCCOCCOCCNc4ccc([N+](=O)[O-])cc4[N+](=O)[O-])nn3)c12` [ARM-H] the “cytotoxicity in MT-2 cells” value (MT-2 cells) was “no observable cytotoxicity; also recorded: no non specific cytotoxicity”, the IC50 (CD4-gp120 interaction) was about 8.7 µM and the “non specific cytotoxicity in CHO cell lines” value (CHO-gp120 cells [2]; CHO cell lines) was “no non specific cytotoxicity”. For the same molecule, the “cell death without antibody and complement” value (CHO-gp120 cells [2]; CHO-gp120 cells, absence of anti-DNP antibody and complement-preserved serum) was “no cell death was observed”, the “concentrations at which inhibition of HIV entry and CDC activity were both operative” value (CHO-gp120 cells [2]; MT-2 entry inhibition and CDC together) was 6 to 30 µM and the IC50 (wild-type HIV IIIB; Human immunodeficiency virus 1, IIIB, MT2, live HIV-1, human MT-2 T-cell line, read-out: IC50, HIV-1 inhibition in MT-2 cell assay) was 6.4 µM.
`C#CCOCCOCCOCCOCCNc1ccc([N+](=O)[O-])cc1[N+](=O)[O-]` [Formula 2, N-(2,4-dinitrophenyl)-3,6,9,12-tetraoxapentadec-14-yn-1-amine] was tested, and the “fluorescence of ARM-H-recruited anti-DNP antibodies in the presence of competing ligand” value (CHO-gp120 cells [1]) was “considerably diminished”.
In the case of `Cc1cn([C@H]2C=C[C@@H](CO)O2)c(=O)[nH]c1=O` [d4T], the IC50 (wild-type HIV IIIB; live HIV-1, human MT-2 T-cell line, read-out: IC50, HIV-1 inhibition in MT-2 cell assay) is reported as 4.2 µM.
